Laboratory results taken from patent US20070129344A1, “Bicyclic 6-alkylidene-penem beta-lactamase inhibitors and beta-lactam antibiotic combination: a broad spectrum antibiotic” (priority 2005, published 2007).

Assays:
[1] = system: E. coli GAR 6649 TEM, OXA, CTX (By PCR only); assay: MIC microbroth dilution; β-lactamase class A, A (ESBL), D; format: cell-based; conditions: Cefepime + 4 ug/ml Compound 1
Experimental: (§1) The in vitro activities of the antibiotics were determined by the microbroth dilution method as recommended by the National Committee for Clinical Laboratory Standards (NCCLS). (NCCLS. 2000. Methods for Dilution Antimicrobial Susceptibility Tests for Bacteria That Grow Aerobically; Approved Standards: M7-A5, vol. 19. National Committee for Clinical Laboratory Standards, Villanova, Pa.). Mueller-Hinton II broth (MHBII)(BBL Cockeysville, Md.), was used for the testing procedure. […]. The plates were incubated for 18-22 hours at 35° C. in ambient air.

[2] = system: S. marcescens GC 1781 (Sme-1 + AmpC); assay: MIC microbroth dilution; β-lactamase class A (Cb'ase), C; format: cell-based; conditions: Cefepime + 4 ug/ml Compound 1
Experimental: as §1

[3] = system: E. coli GAR 5929 TEM, OXA, Act-1, CTX (By PCR only); assay: MIC microbroth dilution; β-lactamase class A, C, D; format: cell-based; conditions: Cefepime + 4 ug/ml Compound 1
Experimental: as §1

[4] = system: P. aeruginosa PT 8411 PTZ-R; assay: MIC microbroth dilution; format: cell-based; conditions: Cefepime + 4 ug/ml Compound 1
Experimental: as §1

[5] = system: P. aeruginosa PT 8503 PTZ-R; assay: MIC microbroth dilution; format: cell-based; conditions: Cefepime + 4 ug/ml Compound 1
Experimental: as §1

[6] = system: P. aeruginosa PT 9587 PTZ-R; assay: MIC microbroth dilution; format: cell-based; conditions: Cefepime + 4 ug/ml Compound 1
Experimental: as §1

[7] = system: P. aeruginosa PT 9236 PTZ-R; assay: MIC microbroth dilution; format: cell-based; conditions: Cefepime + 4 ug/ml Compound 1
Experimental: as §1

[8] = system: K. pn GC 6655 (TEM-1 + ACT-1); assay: MIC microbroth dilution; β-lactamase class A, C; format: cell-based, K. pneumoniae; conditions: Cefepime + 4 ug/ml Compound 1
Experimental: as §1

[9] = system: K. pn GC 3104 (MIR-1 + TEM-1); assay: MIC microbroth dilution; β-lactamase class A, C; format: cell-based, K. pneumoniae; conditions: Cefepime + 4 ug/ml Compound 1
Experimental: as §1

K. pn GC 1516 (TEM-26) = assay: MIC microbroth dilution; β-lactamase class A (ESBL); format: cell-based, K. pneumoniae; conditions: Cefepime + 4 ug/ml Compound 1
Experimental: as §1

K. pn GC 6639 (SHV-13) = assay: as above; format: cell-based, K. pneumoniae; conditions: Cefepime + 4 ug/ml Compound 1
Experimental: as §1

K. pn GC 1832 (SHV-4) = assay: as above; format: cell-based, K. pneumoniae; conditions: Cefepime + 4 ug/ml Compound 1
Experimental: as §1

K. pn GC 1510 (TEM-10) = assay: as above; format: cell-based, K. pneumoniae; conditions: Cefepime + 4 ug/ml Compound 1
Experimental: as §1

K. pn GC 1830 (SHV-2) = assay: as above; format: cell-based, K. pneumoniae; conditions: Cefepime + 4 ug/ml Compound 1
Experimental: as §1

[10] = system: K. pn GC 6494 (TEM-1 + SHV-5); assay: MIC microbroth dilution; β-lactamase class A, A (ESBL); format: cell-based, K. pneumoniae; conditions: Cefepime + 4 ug/ml Compound 1
Experimental: as §1

[11] = system: K. pn GC 6651 (TEM-1 + SHV-1 + SHV-5); assay: as above; format: cell-based, K. pneumoniae; conditions: Cefepime + 4 ug/ml Compound 1
Experimental: as §1

[12] = system: K. pn GC 2006 (TEM-10 + SHV-1); assay: as above; format: cell-based, K. pneumoniae; conditions: Cefepime + 4 ug/ml Compound 1
Experimental: as §1

[13] = system: K. pn GC 1963 (TEM-10 + SHV-1 + SHV-ESBL); assay: as above; format: cell-based, K. pneumoniae; conditions: Cefepime + 4 ug/ml Compound 1
Experimental: as §1

[14] = system: K. pn GC 6488 (TEM-1 + SHV-5 + SHV-7); assay: as above; format: cell-based, K. pneumoniae; conditions: Cefepime + 4 ug/ml Compound 1
Experimental: as §1

[15] = system: K. pn GC 3057 (CAZ-R; P/T-R); assay: as above; format: cell-based, K. pneumoniae; conditions: Cefepime + 4 ug/ml Compound 1
Experimental: as §1

[16] = system: K. pn GC 1507 (TEM-9 + SHV-1); assay: as above; format: cell-based, K. pneumoniae; conditions: Cefepime + 4 ug/ml Compound 1
Experimental: as §1

[17] = system: K. pn GC 6657 (TEM-1 + SHV-27); assay: as above; format: cell-based, K. pneumoniae; conditions: Cefepime + 4 ug/ml Compound 1
Experimental: as §1

[18] = system: K. pn GC 1554 (TEM-1 + TEM-26 + SHV-1); assay: as above; format: cell-based, K. pneumoniae; conditions: Cefepime + 4 ug/ml Compound 1
Experimental: as §1

E. coli GC 1480 OXA-1 = assay: MIC microbroth dilution; β-lactamase class D; format: cell-based; conditions: E. coli GC 1480; Cefepime + 4 ug/ml Compound 1
Experimental: as §1

E. coli GC 1807 OXA-7 = assay: MIC microbroth dilution; β-lactamase class D; format: cell-based; conditions: E. coli GC 1807; Cefepime + 4 ug/ml Compound 1
Experimental: as §1

[19] = system: E. cloacae PT 1494 Inducible AmpC; assay: MIC microbroth dilution; β-lactamase class C; format: cell-based; conditions: Cefepime + 4 ug/ml Compound 1
Experimental: as §1

[20] = system: P. aeruginosa GC 1764 (AmpC); assay: MIC microbroth dilution; β-lactamase class C; format: cell-based; conditions: Cefepime + 4 ug/ml Compound 1
Experimental: as §1

[21] = system: K. pneumoniae GC 7822 Act 1; assay: MIC microbroth dilution; β-lactamase class C; format: cell-based; conditions: Cefepime + 4 ug/ml Compound 1
Experimental: as §1

[22] = system: E. cloacae GC 1477 (AmpC); assay: MIC microbroth dilution; β-lactamase class C; format: cell-based; conditions: Cefepime + 4 ug/ml Compound 1
Experimental: as §1

E. coli GC 6539 CMY-2 = assay: MIC microbroth dilution; β-lactamase class C; format: cell-based; conditions: Cefepime + 4 ug/ml Compound 1
Experimental: as §1

[23] = system: E. cloacae PT 967 Inducible AmpC; assay: MIC microbroth dilution; β-lactamase class C; format: cell-based; conditions: Cefepime + 4 ug/ml Compound 1
Experimental: as §1

[24] = system: A. baumannii PT 8321 PTZ-R; assay: MIC microbroth dilution; β-lactamase class not determined; format: cell-based; conditions: Cefepime + 4 ug/ml Compound 1
Experimental: as §1

[25] = system: A. baumannii PT 9158 PTZ-R; assay: as above; format: cell-based; conditions: Cefepime + 4 ug/ml Compound 1
Experimental: as §1

O=C([O-])C1=CS[C@@H]2/C(=C\c3cn4c(n3)CCC4)C(=O)N12.[Na+] [Compound 1, (5R), (6Z)-6-(6,7-Dihydro-5H-pyrrolo[1,2-a]imidazol-2-ylmethylene)-7-oxo-4-thia-1-aza-bicyclo[3.2.0]hept-2-ene-2-carboxylic Acid, Sodium Salt]
MIC [1]: 1 µg/mL
MIC [2]: 0.12 µg/mL
MIC [3]: 0.06 µg/mL
MIC [4]: 4 µg/mL
MIC [5]: 2 µg/mL
MIC [6]: 2 µg/mL
MIC [7]: 16 µg/mL
MIC [8]: 0.12 µg/mL
MIC [9]: 0.50 µg/mL
MIC (K. pn GC 1516 (TEM-26)): 0.25 µg/mL
MIC (K. pn GC 6639 (SHV-13)): 0.25 µg/mL
MIC (K. pn GC 1832 (SHV-4)): 0.06 µg/mL
MIC (K. pn GC 1510 (TEM-10)): 0.06 µg/mL
MIC (K. pn GC 1830 (SHV-2)): 0.03 µg/mL
MIC [10]: 0.12 µg/mL
MIC [11]: 0.12 µg/mL
MIC [12]: 0.12 µg/mL
MIC [13]: 0.12 µg/mL
MIC [14]: 1 µg/mL
MIC [15]: 0.12 µg/mL
MIC [16]: 0.12 µg/mL
MIC [17]: 0.12 µg/mL
MIC [18]: 0.25 µg/mL
MIC (E. coli GC 1480 OXA-1): 0.06 µg/mL
MIC (E. coli GC 1807 OXA-7): <0.015 µg/mL
MIC [19]: 0.06 µg/mL
MIC [20]: 1 µg/mL
MIC [21]: 0.50 µg/mL
MIC [22]: 0.25 µg/mL
MIC (E. coli GC 6539 CMY-2): 0.06 µg/mL
MIC [23]: 0.06 µg/mL
MIC [24]: >16 µg/mL
MIC [25]: 16 µg/mL
